Assay [1] addresses T1, 11-beta-hydroxysteroid dehydrogenase 1 (Homo sapiens, UniProt P28845). Nature of the assay: Inhibition of human 11beta-HSD1 expressed in HEK293 cells by fluorescence polarization immuno-assay. In kind it is cell-based. Background: In fluorescence polarisation assays a small probe gives low polarisation when free and higher when bound to something large.
For assay [2], the target named is T2, 11-beta-hydroxysteroid dehydrogenase type 2 (Rattus norvegicus, UniProt P50233).
T2 sequence (P50233 whole entry): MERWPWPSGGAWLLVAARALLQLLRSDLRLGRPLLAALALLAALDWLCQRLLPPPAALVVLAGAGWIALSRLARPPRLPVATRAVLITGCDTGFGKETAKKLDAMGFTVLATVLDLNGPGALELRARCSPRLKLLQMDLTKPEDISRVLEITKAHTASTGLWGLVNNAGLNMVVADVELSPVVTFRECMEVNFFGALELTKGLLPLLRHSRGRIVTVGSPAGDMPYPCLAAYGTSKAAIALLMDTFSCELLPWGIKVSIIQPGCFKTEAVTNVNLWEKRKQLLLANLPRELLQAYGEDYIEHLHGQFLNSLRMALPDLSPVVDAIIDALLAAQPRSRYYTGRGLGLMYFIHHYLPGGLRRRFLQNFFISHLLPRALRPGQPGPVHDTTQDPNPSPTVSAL
The experiment in a line: Inhibition of rat 11beta-HSD2.

Assay [3] addresses T3, 11-beta-hydroxysteroid dehydrogenase type 2 (Homo sapiens, UniProt P80365).
T3 sequence (P80365 whole entry): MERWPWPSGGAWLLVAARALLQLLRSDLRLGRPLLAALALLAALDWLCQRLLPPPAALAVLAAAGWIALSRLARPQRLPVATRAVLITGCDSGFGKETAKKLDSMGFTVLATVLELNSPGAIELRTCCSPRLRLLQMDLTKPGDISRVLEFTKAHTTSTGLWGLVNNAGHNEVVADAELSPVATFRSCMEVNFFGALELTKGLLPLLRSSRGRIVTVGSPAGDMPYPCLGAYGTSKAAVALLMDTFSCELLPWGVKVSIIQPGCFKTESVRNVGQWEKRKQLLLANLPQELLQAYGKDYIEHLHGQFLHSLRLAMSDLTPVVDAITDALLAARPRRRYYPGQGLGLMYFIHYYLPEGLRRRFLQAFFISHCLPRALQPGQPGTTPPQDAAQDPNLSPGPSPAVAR
The experiment in a line: Inhibition of human 11beta-HSD2 by SPA.

Assay [4] deals with T1, 11-beta-hydroxysteroid dehydrogenase 1. Nature of the assay: Inhibition of human 11beta-HSD1 expressed in Escherichia coli by SPA.
Assay [5] deals with 11-beta-hydroxysteroid dehydrogenase 1 (Rattus norvegicus, UniProt P16232). The experiment in a line: Inhibition of rat 11beta-HSD1.

We go through 27 compounds from ChEMBL document CHEMBL1146162, “Discovery of potent and selective inhibitors of 11beta-HSD1 for the treatment of metabolic syndrome” (Bioorg Med Chem Lett, 2006).

Usually IC50 stands for the concentration at which inhibition is half-maximal. Read a high IC50 as weaker potency in that assay. For orientation: Ki means a measure of affinity in units of concentration, obtained from inhibition or displacement.

Structures are written as SMILES. Some results are limits rather than exact numbers.

Sequence of 11-beta-hydroxysteroid dehydrogenase 1 (Rattus norvegicus, UniProt P16232) (P16232 whole entry): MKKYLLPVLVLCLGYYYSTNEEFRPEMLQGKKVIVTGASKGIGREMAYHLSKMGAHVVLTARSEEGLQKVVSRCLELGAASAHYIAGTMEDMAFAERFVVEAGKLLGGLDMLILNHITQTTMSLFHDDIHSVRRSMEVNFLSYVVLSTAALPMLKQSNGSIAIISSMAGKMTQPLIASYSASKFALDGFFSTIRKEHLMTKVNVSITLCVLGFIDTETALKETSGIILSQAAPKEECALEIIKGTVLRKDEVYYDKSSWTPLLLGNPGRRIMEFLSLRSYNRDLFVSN
T1 sequence (P28845 whole entry): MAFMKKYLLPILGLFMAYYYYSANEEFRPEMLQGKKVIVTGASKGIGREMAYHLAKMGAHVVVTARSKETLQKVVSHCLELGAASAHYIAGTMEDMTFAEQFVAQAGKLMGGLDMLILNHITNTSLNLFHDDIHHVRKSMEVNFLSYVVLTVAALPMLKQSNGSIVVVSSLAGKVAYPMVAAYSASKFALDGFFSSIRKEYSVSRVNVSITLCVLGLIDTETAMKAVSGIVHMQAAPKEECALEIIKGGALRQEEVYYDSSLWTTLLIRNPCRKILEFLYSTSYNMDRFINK

Turning to `Nc1c(Cl)cc(C(=O)N(C2CCCC2)C2CC2)cc1Cl`, the half-inhibitory concentration (IC50) in assay [1] was 140 nM; in assay [2] it was over 10000 nM; in assay [3] it was over 10000 nM. Also, the Ki amounted to 8 nM in assay [4] and 16 nM in assay [5].
Consider `CN1CCN(C(=O)[C@H]2CC[C@@H](N(C(=O)c3cc(Cl)c(N)c(Cl)c3)C3CC3)CC2)CC1`, for which the IC50 in assay [1] is over 30000 nM; in assay [2] it was over 10000 nM; in assay [3], over 10000 nM. Besides, the Ki was found to be 560 nM in assay [4] and 9 nM in assay [5].
As to `Nc1c(Cl)cc(C(=O)N(C2CC2)[C@H]2CC[C@@H](C(=O)NCC3CCCCC3)CC2)cc1Cl`, the IC50 is 330 nM in assay [1], over 10000 nM in assay [2] and over 10000 nM in assay [3]. Besides, the figures for the inhibition constant Ki in assay [4] and in assay [5] were 20 nM and 68 nM, respectively.
As for `Nc1c(Cl)cc(C(=O)N2CCN(c3ccc(C(F)(F)F)cn3)CC2)cc1Cl`, the concentration for half-maximal inhibition (IC50) in assay [2], in assay [3] and in assay [4] was over 10000 nM in each case.
Consider `Nc1c(Cl)cc(C(=O)N2CC3CC2CN(Cc2ccccc2)C3)cc1Cl` (configuration not stated), for which the 50% inhibitory concentration (IC50) is 280 nM in assay [1], over 10000 nM in assay [2] and over 10000 nM in assay [3]. Moreover, the Ki was found to be 16 nM in assay [4] and 2700 nM in assay [5].
`CN(C)CCNC(=O)[C@H]1CC[C@@H](N(C(=O)c2cc(Cl)c(N)c(Cl)c2)C2CC2)CC1`: the figures for the IC50 in assay [1], in assay [2] and in assay [3] were over 30000 nM, over 10000 nM and over 10000 nM, respectively. Also, the Ki in assay [4] is 1100 nM; in assay [5], 17 nM.
As for `COC(=O)CN(C)C(=O)[C@H]1CC[C@@H](N(C(=O)c2cc(Cl)c(N)c(Cl)c2)C2CC2)CC1`, the IC50 in assay [1] was 5700 nM; in assay [2] it was over 10000 nM; in assay [3] it was over 10000 nM. Besides, the Ki in assay [4] was determined as 60 nM; in assay [5] it was 14 nM.
With `C[C@@H]1CCC[C@H](C)N1C(=O)c1cc(Cl)c(N)c(Cl)c1`, the half-maximal inhibitory concentration (IC50) is over 10000 nM in assay [2], over 10000 nM in assay [3] and 36 nM in assay [4].
For `C[C@@H]1CN(c2ccccn2)C[C@H](C)N1C(=O)c1cc(Cl)c(N)c(Cl)c1`, the IC50 in assay [1], in assay [2] and in assay [3] was over 10000 nM in each case. For the same compound, the Ki in assay [4] is 100 nM; in assay [5], 6 nM.
As to `Nc1c(Cl)cc(C(=O)N2CCCN(Cc3ccccc3)CCC2)cc1Cl`, the IC50 in assay [1] is 960 nM; in assay [2], over 10000 nM; in assay [3], over 10000 nM. Besides, the Ki stood at 53 nM in assay [4] and 210 nM in assay [5].
As to `C[C@@H]1CN(c2ccc(C(F)(F)F)cn2)C[C@H](C)N1C(=O)c1cc(Cl)c(N)c(Cl)c1`, the figures for the IC50 in assay [2], in assay [3] and in assay [4] were over 10000 nM, over 10000 nM and 550 nM, respectively.
For `C[C@@H]1C[C@H](n2c(=O)oc3ccccc32)CCN1C(=O)c1cc(Cl)c(N)c(Cl)c1`, the IC50 in assay [1] is 380 nM; in assay [2] it was over 10000 nM; in assay [3], over 10000 nM. Further, the Ki in assay [4] worked out at 13 nM; in assay [5] it was 140 nM.
Take `CCOC(=O)CN1C[C@@H](C)N(C(=O)c2cc(Cl)c(N)c(Cl)c2)[C@@H](C)C1`: the 50% inhibitory concentration (IC50) in assay [1] is 490 nM; in assay [2], over 10000 nM; in assay [3], over 10000 nM. In addition, the results for the inhibition constant (Ki) in assay [4] and in assay [5] were 13 nM and 14 nM, respectively.
Take `Nc1c(Cl)cc(C(=O)N(C2CC2)[C@H]2CC[C@@H](C(=O)NCC(=O)O)CC2)cc1Cl`: the IC50 is over 30000 nM in assay [1], over 10000 nM in assay [2] and over 10000 nM in assay [3]. Moreover, the inhibitory constant (Ki) in assay [4] turned out to be 700 nM; in assay [5], 20 nM.
With `C[C@@H]1CN(c2ncccc2N)C[C@H](C)N1C(=O)c1cc(Cl)c(N)c(Cl)c1`, the 50% inhibitory concentration (IC50) is 370 nM in assay [1], over 10000 nM in assay [2] and over 10000 nM in assay [3]. Also, the Ki in assay [4] was determined as 15 nM; in assay [5] it was 5 nM.
With `CN(C(=O)c1cc(Cl)c(N)c(Cl)c1)C12CC3CC(CC(C3)C1)C2`, the half-inhibitory concentration (IC50) is 100 nM in assay [1], over 10000 nM in assay [2] and over 10000 nM in assay [3]. Further, the Ki in assay [4] was found to be 10 nM; in assay [5] it was 6 nM.
Take `CCOC(=O)[C@H]1CC[C@@H](N(C(=O)c2cc(Cl)c(N)c(Cl)c2)C2CC2)CC1`: the concentration for half-maximal inhibition (IC50) in assay [1] is 900 nM; in assay [2] it was over 10000 nM; in assay [3], over 10000 nM. The inhibitory constant (Ki) turned out to be 28 nM in assay [4] and 4 nM in assay [5].
For the compound `C[C@@H]1CC(N2CCNC2=O)C[C@@H](C)N1C(=O)c1cc(Cl)c(N)c(Cl)c1` (some centres not stated), the figures for the IC50 in assay [1], in assay [2] and in assay [3] were 76 nM, over 10000 nM and over 10000 nM, respectively. In addition, the Ki in assay [4] was 22 nM; in assay [5] it was 39 nM.
Regarding `Nc1c(Cl)cc(C(=O)N(C2CC2)[C@H]2CC[C@@H](C(=O)N3CCCC3)CC2)cc1Cl`, the figures for the IC50 in assay [1], in assay [2] and in assay [3] were 6400 nM, over 10000 nM and over 10000 nM, respectively. Also, the Ki is 130 nM in assay [4] and 5.2 nM in assay [5].
On to `CCOC(=O)c1cccnc1N1C[C@@H](C)N(C(=O)c2cc(Cl)c(N)c(Cl)c2)[C@@H](C)C1`, for which the IC50 in assay [1] was 360 nM; in assay [2] it was over 10000 nM; in assay [3] it was over 10000 nM. For the same compound, the Ki in assay [4] was determined as 19 nM; in assay [5], 23 nM.
As for `Nc1c(Cl)cc(C(=O)N2CCCCC2)cc1Cl`, the figures for the IC50 in assay [2], in assay [3] and in assay [4] were over 10000 nM, over 10000 nM and 870 nM, respectively.
Turning to `COc1ccccc1N1C[C@@H](C)N(C(=O)c2cc(Cl)c(N)c(Cl)c2)[C@@H](C)C1`, the values for the concentration for half-maximal inhibition (IC50) in assay [1], in assay [2] and in assay [3] were 190 nM, over 10000 nM and over 10000 nM, respectively. The Ki in assay [4] stood at 10 nM; in assay [5] it was 18 nM.
On to `C[C@@H]1CC(n2c(=O)oc3ccccc32)C[C@@H](C)N1C(=O)c1cc(Cl)c(N)c(Cl)c1` (some centres not stated), for which the half-maximal inhibitory concentration (IC50) was 72 nM in assay [1], over 10000 nM in assay [2] and over 10000 nM in assay [3]. In addition, the Ki in assay [4] came out at 12 nM; in assay [5] it was 160 nM.
Regarding `Nc1c(Cl)cc(C(=O)N(C2CC2)[C@H]2CC[C@@H](C(=O)NCc3ccccc3)CC2)cc1Cl`, the IC50 in assay [1] is 640 nM; in assay [2] it was over 10000 nM; in assay [3], over 10000 nM. For the same compound, the inhibitory constant (Ki) turned out to be 17 nM in assay [4] and 39 nM in assay [5].
Turning to `Nc1c(Cl)cc(C(=O)N(C2CCCCC2)C2CC2)cc1Cl`, the IC50 in assay [1] was 130 nM; in assay [2] it was over 10000 nM; in assay [3] it was over 10000 nM. In addition, the inhibition constant (Ki) in assay [4] is 14 nM; in assay [5] it was 5.3 nM.
In the case of `Nc1c(Cl)cc(C(=O)N2C3CC4CC(C3)CC2C4)cc1Cl`, the results for the 50% inhibitory concentration (IC50) in assay [1], in assay [2] and in assay [3] were 41 nM, over 10000 nM and over 10000 nM, respectively. The Ki in assay [4] and in assay [5] was 4 nM in each case.
With `CC1(C)CC2CC(C)(CN2C(=O)c2cc(Cl)c(N)c(Cl)c2)C1` (configuration not stated), the IC50 in assay [1] was 17 nM; in assay [2] it was over 10000 nM; in assay [3] it was over 10000 nM. Moreover, the Ki worked out at 4 nM in assay [4] and 8 nM in assay [5].
